Molecular target: T1, human Edg-1(S1P1) (Homo sapiens, UniProt P21453)
T1 construct: expressed in transfected cells; host or cells: HEK-293
Assay: S1P1 Binding Test ([33P]-S1P, membrane fraction of HEK-293 cell line carrying the human Edg-1(S1P1) gene)
Settings: compound at 10 μM; [33P]-S1P 0.1 nM; 30° C., 1 hour; read-out: inhibition rate of Edg-1(S1P1) binding
Description: The membrane fraction of a HEK-293 cell line carrying the human Edg-1(S1P1) gene was used to study the compounds of the present invention for their inhibitory effect on Edg-1(S1P1) binding, as described in Science. […] To obtain the membrane fraction, treatment with solubilizing buffer (1 mM Tris/HCl, pH 7.2) for 10 minutes on ice was performed, followed by centrifugation at 1000×g for 5 minutes to remove an insoluble fraction and then at 40000×g for 30 minutes at 4° C. The resulting membrane fraction was dissolved in binding buffer (20 mM Tris-HCl, pH 7.4, 100 mM NaCl, 15 mM NaF, 2 mM deoxypyridoxine, 4 mg/mL fatty acid-free BSA), followed by addition of binding buffer containing [^33P]-S1P (ARC, final concentration: 0.1 nM) and DMSO solution of a test compound (final concentration of the compound: 10^−5 M, final concentration of DMSO: 0.1%). After stirring, the reaction solution was incubated at 30° C. for 1 hour. The membrane fraction was collected onto a unifilter-96 GF/C filter (Perkin Elmer) using a harvester and washed four times with binding buffer, followed by drying the filter. After addition of 25 μL Microscint 0 (Perkin Elmer), radioactivity was measured with a Top Count NXT (Packard) to calculate amount (A), i.e., the amount of [^33P]-S1P binding to the membrane fraction in the presence of the compound.
The same procedure was performed in the absence of any test compound to calculate amount (B), i.e., the amount of [^33P]-S1P binding. Moreover, the same procedure was also performed with HEK-293 cells carrying no Edg-1(S1P1) gene in the absence of any test compound to calculate amount (C), i.e., the amount of background [^33P]-S1P binding.
The inhibition rate of Edg-1(S1P1) binding was calculated for each compound by the following equation. Inhibition rate (%)=[1−(A−C)/(B−C)]×100
Moreover, the activity of each test compound was calculated as a value (IC50 value) showing 50% of the radioactivity obtained in the absence of any test compound. Namely, the above membrane system binding test was performed in the presence of a test compound at various concentrations to calculate an IC50 value according to the dose-dependent inhibition curve analyzed with data analysis software, Origin (Lightstone Corp., Japan).

T1 sequence (P21453 whole entry): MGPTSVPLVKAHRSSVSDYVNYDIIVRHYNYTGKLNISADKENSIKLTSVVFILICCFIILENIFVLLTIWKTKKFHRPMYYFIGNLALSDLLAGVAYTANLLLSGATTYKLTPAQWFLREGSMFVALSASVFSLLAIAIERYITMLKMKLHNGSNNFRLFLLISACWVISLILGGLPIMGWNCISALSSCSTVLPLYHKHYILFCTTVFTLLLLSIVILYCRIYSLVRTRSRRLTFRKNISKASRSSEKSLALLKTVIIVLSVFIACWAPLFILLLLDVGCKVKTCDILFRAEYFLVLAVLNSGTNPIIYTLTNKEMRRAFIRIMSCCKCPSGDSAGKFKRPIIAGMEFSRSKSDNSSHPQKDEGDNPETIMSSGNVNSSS

Row | inhibition at 10 µM [%] | Compound
1 | ≥ 3 | CCc1c(C(C)NS(=O)(=O)c2ccc(OC)cc2)ccnc1Oc1cccc(N2CCOCC2)c1 (stereo not shown) [Compound 36]
2 | ≥ 3 | CCc1c(C(C)N(C)S(=O)(=O)c2ccc3c(Cl)cccc3c2)ccnc1Oc1cccc(N2CCOCC2)c1 (stereo not shown) [Compound 60, 5-Chloronaphthalene-2-sulfonic acid {1-[3-ethyl-2-(3-morpholin-4-yl-phenoxy)-pyridin-4-yl]-ethyl}-methyl-amide]
3 | ≥ 3 | CCc1c(C(CC)NS(=O)(=O)c2ccc3c(Cl)cccc3c2)ccnc1Oc1cccc(N2CCN(C)CC2)c1 (stereo not shown) [Compound 13]
4 | ≥ 3 | CCc1c(C(C)NS(=O)(=O)c2ccc(Cl)c(Cl)c2)ccnc1Oc1ccc(OC)cc1 (stereo not shown) [Compound 17]
5 | ≥ 3 | CCc1c(C(C)NS(=O)(=O)c2cc3ccccc3s2)ccnc1Oc1cccc(N2CCOCC2)c1 (stereo not shown) [Compound 51]
6 | ≥ 3 | CCc1c(C(C)NS(=O)(=O)c2ccc(F)c(Cl)c2)ccnc1Oc1cccc(N2CCOCC2)c1 (stereo not shown) [Compound 45]
7 | ≥ 3 | CC(NS(=O)(=O)c1ccc(Cl)c(Cl)c1)c1ccnc(Oc2cccc(N3CCN(C)CC3)c2)c1 (stereo not shown) [Compound 8]
8 | ≥ 3 | CCc1c(C(C)NS(=O)(=O)/C=C/c2ccccc2)ccnc1Oc1cccc(N2CCOCC2)c1 (stereo not shown) [Compound 53]
9 | ≥ 3 | CCc1c(C(C)NS(=O)(=O)c2ccc(C#N)cc2)ccnc1Oc1cccc(N2CCOCC2)c1 (stereo not shown) [Compound 40]
10 | ≥ 3 | CCc1c(CNS(=O)(=O)c2ccc3c(Cl)cccc3c2)ccnc1Oc1cccc(N2CCN(C)CC2)c1 [Compound 15]
11 | ≥ 3 | CCc1c(C(C)NS(=O)(=O)c2ccc(OC(F)(F)F)cc2)ccnc1Oc1cccc(N2CCOCC2)c1 (stereo not shown) [Compound 38]
12 | ≥ 3 | CCc1c(C(C)NS(=O)(=O)c2ccc(Cl)c(Cl)c2)ccnc1OCC(F)(F)F (stereo not shown) [Compound 24]
13 | ≥ 3 | Cc1c(C(C)NS(=O)(=O)c2ccc(Cl)c(Cl)c2)ccnc1Oc1cccc(N2CCN(C)CC2)c1 (stereo not shown) [Compound 6]
14 | ≥ 3 | CCc1c(C(C)NS(=O)(=O)c2ccccc2C)ccnc1Oc1cccc(N2CCOCC2)c1 (stereo not shown) [Compound 33]
15 | ≥ 3 | CCc1c(C(C)NS(=O)(=O)c2ccc3c(Cl)cccc3c2)ccnc1Sc1cccc(N2CCN(C)CC2)c1 (stereo not shown) [Compound 62]
16 | ≥ 3 | CCc1c(C(C)NS(=O)(=O)c2ccc([N+](=O)[O-])cc2)ccnc1Oc1cccc(N2CCOCC2)c1 (stereo not shown) [Compound 39]
17 | ≥ 3 | CCc1c(C(C)NS(=O)(=O)c2cccnc2)ccnc1Oc1cccc(N2CCOCC2)c1 (stereo not shown) [Compound 49]
18 | ≥ 3 | CCc1c(C(C)NS(=O)(=O)c2ccc(Cl)c(Cl)c2)ccnc1OC (stereo not shown) [Compound 23]
19 | ≥ 3 | CCc1c(C(C)NS(=O)(=O)c2ccc(Cl)c(Cl)c2)ccnc1Oc1ccc(Cl)cc1 (stereo not shown) [Compound 18]
20 | ≥ 3 | CCc1c(C(C)NS(=O)(=O)c2ccc(Cl)c(Cl)c2)ccnc1Oc1ccc2ccncc2c1 (stereo not shown) [Compound 20]
21 | ≥ 3 | CCCc1c(C(C)NS(=O)(=O)c2ccc3c(Cl)cccc3c2)ccnc1Oc1cccc(N2CCN(C)CC2)c1 (stereo not shown) [Compound 11]
22 | ≥ 3 | CCc1c(C(C)NS(=O)(=O)c2ccc3c(c2)OCO3)ccnc1Oc1cccc(N2CCOCC2)c1 (stereo not shown) [Compound 52]
23 | ≥ 3 | CCc1c(C(C)NS(=O)(=O)c2ccc(Cl)c(Cl)c2)ccnc1Oc1ccc(C)cc1 (stereo not shown) [Compound 16]
24 | ≥ 3 | CCc1c(C(C)NS(=O)(=O)c2cccc(C)c2)ccnc1Oc1cccc(N2CCOCC2)c1 (stereo not shown) [Compound 34]
25 | ≥ 3 | CCc1c(C(C)NS(=O)(=O)c2ccc(Cl)c(Cl)c2)ccnc1OC(C)C (stereo not shown) [Compound 26, 3,4-Dichloro-N-[1-(2-isopropoxy-3-ethyl-pyridin-4-yl)-ethyl]-benzenesulfonamide]

Same assay, conditions: membrane binding test at various concentrations; [33P]-S1P 0.1 nM; read-out: IC50 value, Edg-1(S1P1) binding inhibition

Row | IC50 [nM] | Compound
26 | 47 | CCc1c(C(CC)NS(=O)(=O)c2ccc3c(Cl)cccc3c2)ccnc1Oc1cccc(N2CCN(C)CC2)c1 (stereo not shown) [Compound 13]
27 | 121 | 5-Chloro-naphthalene-2-sulfonic acid (1-{3-ethyl-4-[3-(4-methyl-piperazin-1-yl)-phenoxy]-pyridin-2-yl}-ethyl)-amide [Compound 4]
28 | ≤ 200 | CCCc1c(C(C)NS(=O)(=O)c2ccc3c(Cl)cccc3c2)ccnc1Oc1cccc(N2CCN(C)CC2)c1 (stereo not shown) [Compound 11]

— patent US8048898B2, “Inhibitor of binding of S1P1” (Taisho Pharmaceutical Co., Ltd, priority 2007, dated 2011)
